# Measured values: US8858952B2, “Methods and materials for generating T cells” (Mayo Foundation for Medical Education and Research, priority 2009, dated 2014)
# Where no end group is shown, it is not given here. [ ]: non-standard residue; d: D form. Ava = NCCCCC(=O)O
# Tested on: FR74-specific T cells
# Assay: Proliferation (thymidine incorporation) of T cells generated ex vivo with polypeptides
# Format: cell-based, FVB/N mice
# Conditions: thymidine incorporation against native FR74; FIG. 5
# Protocol: FIG. 5 is a graph plotting proliferation (as measured by thymidine incorporation (CPM)) of T cells treated with the indicated polypeptides. Epitope nesting activates high affinity antigen-specific T cells. T cells were tested for incorporation against native FR74 polypeptide at various concentrations. Each data point is the mean of 3 determinations.
# In terms of proliferation, only the dual modified polypeptide was able to generate T cells that were able to proliferate at 10^−9 g/mL (FIG. 5).
# In order to determine whether furin cleavage is required, two methods are used: furin insensitive linkers and furin inhibitors. Blockade of enhanced ex vivo expansion mediated by the DC3 peptide using these two methods is powerful evidence, outside of a furin knockout mouse, that furin is required for the actions of DC3. Although it has already been shown that DC3 must be linked to antigen, as a control T cells are expanded using free FR74 mixed with free DC3. To test the role of furin with furin-insensitive linkers, RARR (SEQ ID NO:4) is replaced with VRVV (SEQ ID NO:41) with the polypeptides FR74.1, FR74.3, and FR74.8 as shown in FIG. 17. In parallel with these cultures, cultures are included in which inhibitors are included. […] On day 5, CPG is added to the cultures at 1 μg/mL, and the cells are ready for T cell induction on day 6. […]
substance,measurement,value
FR74.4: dual conjugated polypeptide: FR74 nested between Ii-key and DC3 (Ac-LRMK[Ava]KDISYLYRFNWNHCGRARRFYPSYHSTPQRP),lowest peptide concentration at which generated T cells proliferate,10^−9 g/mL
